Measurements taken from PMC10257182, “Discovery of senolytics using machine learning” (Nature Communications, 2023).
Read-outs that look alike come from different tables or passages of the source.

Assays:
Format in all cases: cell-based, human
[1] = test system: non-senescent control A549 cells; assay: Nuclei count senolytic assay, TIS model, non-senescent control cells; details: Homo sapiens, A549, Control cells, mean, read-out: Mean % Cell Survival
Procedure, shortened: (§1)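 Read-out is the imaged count of Hoechst 33342-stained nuclei (2 μg/ml final) in fixed, permeabilised A549 cells. Senescent cells had received etoposide at 100 μM for 48 h plus three days recovery in normal media. Compound exposure lasted 72 h across a 10-point […] range, 10 μM to 10 nM.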

[2] = test system: senescent A549 cells (etoposide-induced); assay: Nuclei count senolytic assay, therapy-induced senescence (TIS) model, senescent cells; details: Homo sapiens, A549, Senescent cells, mean, read-out: Mean % Cell Survival
Procedure, shortened: as §1

[3] = test system: senescent IMR90 ER:RAS cells (4-OHT-induced); assay: Nuclei count (Hoechst, high content imaging) senolytic assay, oncogene-induced senescence (OIS) model, senescent cells; details: Homo sapiens
Procedure, shortened: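 Readout is automated image-based counting of Hoechst-stained nuclei per well, with loss of cells relative to untreated wells taken as cell death. Senescent (4-OHT, 100 nM) and control IMR90 ER:RAS cells were exposed to compounds for 72 h at 10 nM to 10 μM final.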

CO[C@H]1C[C@@H]2CC[C@@H](C)[C@@](O)(O2)C(=O)C(=O)N2CCCC[C@H]2C(=O)O[C@H]([C@H](C)C[C@@H]2CC[C@@H](OCCO)[C@H](OC)C2)CC(=O)[C@H](C)/C=C(\C)[C@@H](O)[C@@H](OC)C(=O)[C@H](C)C[C@H](C)/C=C/C=C/C=C/1C [Everolimus, everolimus, reference compound] was tested, and the viability at 10 µM ([1]; log (dose) [M] -5) was 106%, the viability at 4.68 µM ([1]; log (dose) [M] -5.33) was 103% and the viability at 2.19 µM ([1]; log (dose) [M] -5.66) was 103%. The viability at 1 µM ([1]; log (dose) [M] -6) was 102%, the viability at 0.468 µM ([1]; log (dose) [M] -6.33) was 67.5% and the viability at 0.219 µM ([1]; log (dose) [M] -6.66) was 103%. For the same molecule, the viability at 0.1 µM ([1]; log (dose) [M] -7) was 102%, the viability at 0.0468 µM ([1]; log (dose) [M] -7.33) was 106% and the viability at 0.0219 µM ([1]; log (dose) [M] -7.66) was 105%. The viability at 0.01 µM ([1]; log (dose) [M] -8) was 108%, the viability at 10 µM ([2]; log (dose) [M] -5) was 71.7% and the viability at 4.68 µM ([2]; log (dose) [M] -5.33) was 84.3%. The viability at 2.19 µM ([2]; log (dose) [M] -5.66) was 79.6%, the viability at 1 µM ([2]; log (dose) [M] -6) was 66.9% and the viability at 0.468 µM ([2]; log (dose) [M] -6.33) was 72.1%. The viability at 0.219 µM ([2]; log (dose) [M] -6.66) was 74.4%, the viability at 0.1 µM ([2]; log (dose) [M] -7) was 76.2% and the viability at 0.0468 µM ([2]; log (dose) [M] -7.33) was 85.6%. The viability at 0.0219 µM ([2]; log (dose) [M] -7.66) was 95%, the viability at 0.01 µM ([2]; log (dose) [M] -8) was 94.7% and the viability at 10 µM ([3]; IMR-90, 72 h, Senescent, log (dose) [M] -5, 72 h, mean n=3 (Fig 3C), read-out: Mean % Cell Survival) was 82.2%. The viability at 4.677 µM ([3]; IMR-90, 72 h, Senescent, log (dose) [M] -5.33, 72 h, mean n=3 (Fig 3C), read-out: Mean % Cell Survival) was 80%, the viability at 2.188 µM ([3]; IMR-90, 72 h, Senescent, log (dose) [M] -5.66, 72 h, mean n=3 (Fig 3C), read-out: Mean % Cell Survival) was 87.3% and the viability at 1 µM ([3]; IMR-90, 72 h, Senescent, log (dose) [M] -6, 72 h, mean n=3 (Fig 3C), read-out: Mean % Cell Survival) was 92.8%. For the same molecule, the viability at 0.4677 µM ([3]; IMR-90, 72 h, Senescent, log (dose) [M] -6.33, 72 h, mean n=3 (Fig 3C), read-out: Mean % Cell Survival) was 92.3%, the viability at 0.2188 µM ([3]; IMR-90, 72 h, Senescent, log (dose) [M] -6.66, 72 h, mean n=3 (Fig 3C), read-out: Mean % Cell Survival) was 92.6% and the viability at 0.1 µM ([3]; IMR-90, 72 h, Senescent, log (dose) [M] -7, 72 h, mean n=3 (Fig 3C), read-out: Mean % Cell Survival) was 93.7%. The viability at 0.04677 µM ([3]; IMR-90, 72 h, Senescent, log (dose) [M] -7.33, 72 h, mean n=3 (Fig 3C), read-out: Mean % Cell Survival) was 88.2%, the viability at 0.02188 µM ([3]; IMR-90, 72 h, Senescent, log (dose) [M] -7.66, 72 h, mean n=3 (Fig 3C), read-out: Mean % Cell Survival) was 90.5% and the viability at 0.01 µM ([3]; IMR-90, 72 h, Senescent, log (dose) [M] -8, 72 h, mean n=3 (Fig 3C), read-out: Mean % Cell Survival) was 93.7%. The viability at 10 µM ([3]; IMR-90, Senescent, log (dose) [M] -5, read-out: % Cell Survival) was 67.8%, the viability at 4.677 µM ([3]; IMR-90, Senescent, log (dose) [M] -5.33, read-out: % Cell Survival) was 92.4% and the viability at 2.188 µM ([3]; IMR-90, Senescent, log (dose) [M] -5.66, read-out: % Cell Survival) was 80%. The viability at 0.2188 µM ([3]; IMR-90, Senescent, log (dose) [M] -6.66, read-out: % Cell Survival) was 80.7% and the viability at 0.1 µM ([3]; IMR-90, Senescent, log (dose) [M] -7, read-out: % Cell Survival) was 80.3%.
